PubChem BioAssay AID1259407 (Chemical Carcinogenesis Research Information System (CCRIS), 2018)
Activity calls are given as the source filed them. How the calls were made is not given here.

Test system: CCRIS mutagenicity, Ames/micronucleus/aberration tests
Test: CCRIS mutagenicity studies
[1] = Test System: AMES SALMONELLA TYPHIMURIUM, Strain/Indicator: TA98, Metabolic Activation: NONE, Method: STANDARD PLATE
[2] = Test System: AMES SALMONELLA TYPHIMURIUM, Strain/Indicator: TA100, Metabolic Activation: NONE, Method: STANDARD PLATE
[3] = Test System: AMES SALMONELLA TYPHIMURIUM, Strain/Indicator: TA100, Metabolic Activation: S-9, Method: STANDARD PLATE
[4] = Test System: AMES SALMONELLA TYPHIMURIUM, Strain/Indicator: TA1535, Metabolic Activation: NONE, Method: STANDARD PLATE
[5] = Test System: AMES SALMONELLA TYPHIMURIUM, Strain/Indicator: TA100, Metabolic Activation: RAT, LIVER, S-9, AROCLOR 1254, Method: STANDARD PLATE
[6] = Test System: AMES SALMONELLA TYPHIMURIUM, Strain/Indicator: TA98, Metabolic Activation: RAT, LIVER, S-9, AROCLOR 1254, Method: STANDARD PLATE
[7] = Test System: AMES SALMONELLA TYPHIMURIUM, Strain/Indicator: TA98, Metabolic Activation: NONE, Method: PREINCUBATION
[8] = Test System: AMES SALMONELLA TYPHIMURIUM, Strain/Indicator: TA100, Metabolic Activation: NONE, Method: PREINCUBATION

In the case of `COP(=S)(OC)Oc1ccc(Sc2ccc(OP(=S)(OC)OC)cc2)cc1`, the mutagenic call (Test System: AMES SALMONELLA TYPHIMURIUM, Strain/Indicator: TA97, Metabolic Activation: NONE, Method: STANDARD PLATE) is reported as “inactive; negative”, the mutagenic call (Test System: AMES SALMONELLA TYPHIMURIUM, Strain/Indicator: TA97, Metabolic Activation: S-9, Method: STANDARD PLATE) is reported as “inactive; negative” and the mutagenic call [1] is reported as “inactive; negative”. For the same compound, the mutagenic call (Test System: AMES SALMONELLA TYPHIMURIUM, Strain/Indicator: TA98, Metabolic Activation: S-9, Method: STANDARD PLATE) was “inactive; negative”, the mutagenic call (Test System: AMES SALMONELLA TYPHIMURIUM, Strain/Indicator: TA98NR, Metabolic Activation: NONE, Method: STANDARD PLATE) was “active; positive” and the mutagenic call (Test System: AMES SALMONELLA TYPHIMURIUM, Strain/Indicator: TA98NR, Metabolic Activation: S-9, Method: STANDARD PLATE) was “active; positive”. The mutagenic call [2] was “inactive; negative”, the mutagenic call [3] was “inactive; negative” and the mutagenic call (Test System: AMES SALMONELLA TYPHIMURIUM, Strain/Indicator: TA102, Metabolic Activation: NONE, Method: STANDARD PLATE) was “inactive; negative”. For the same compound, the mutagenic call (Test System: AMES SALMONELLA TYPHIMURIUM, Strain/Indicator: TA102, Metabolic Activation: S-9, Method: STANDARD PLATE) was “inactive; negative”, the mutagenic call [4] was “active; positive” and the mutagenic call (Test System: AMES SALMONELLA TYPHIMURIUM, Strain/Indicator: TA1535, Metabolic Activation: S-9, Method: STANDARD PLATE) was “active; positive”. The mutagenic call (Test System: AMES SALMONELLA TYPHIMURIUM, Strain/Indicator: YG7104, Metabolic Activation: NONE, Method: STANDARD PLATE) was “active; positive”, the mutagenic call (Test System: AMES SALMONELLA TYPHIMURIUM, Strain/Indicator: YG7104, Metabolic Activation: S-9, Method: STANDARD PLATE) was “active; positive” and the mutagenic call (Test System: AMES SALMONELLA TYPHIMURIUM, Strain/Indicator: YG7108, Metabolic Activation: NONE, Method: STANDARD PLATE) was “inactive; negative”. For the same compound, the mutagenic call (Test System: AMES SALMONELLA TYPHIMURIUM, Strain/Indicator: YG7108, Metabolic Activation: S-9, Method: STANDARD PLATE) was “active; positive”.
With `O=C1c2ccccc2-c2c1ccc1ccccc21` the mutagenic call [5] was “active; positive”.
With `CNC(=O)NO` the mutagenic call [1] was “inactive; negative” and the mutagenic call [2] was “inactive; negative”.
`CN(C)CCCN1c2ccccc2CCc2ccccc21` was tested, and the mutagenic call [1] was “inactive; negative”, the mutagenic call [6] was “inactive; negative” and the mutagenic call [2] was “inactive; negative”. The mutagenic call [5] was “inactive; negative”, the mutagenic call [4] was “inactive; negative” and the mutagenic call (Test System: AMES SALMONELLA TYPHIMURIUM, Strain/Indicator: TA1535, Metabolic Activation: RAT, LIVER, S-9, AROCLOR 1254, Method: STANDARD PLATE) was “inactive; negative”. For the same compound, the mutagenic call (Test System: AMES SALMONELLA TYPHIMURIUM, Strain/Indicator: TA1537, Metabolic Activation: NONE, Method: STANDARD PLATE) was “inactive; negative” and the mutagenic call (Test System: AMES SALMONELLA TYPHIMURIUM, Strain/Indicator: TA1537, Metabolic Activation: RAT, LIVER, S-9, AROCLOR 1254, Method: STANDARD PLATE) was “inactive; negative”.
`COc1cc(C[C@@H](CO)[C@H](CO)Cc2ccc(O)c(OC)c2)ccc1O` was tested, and the mutagenic call (Test System: CHINESE HAMSTER V79 CELLS, Strain/Indicator: V79 CELLS (HPRT)/6-THIOGUANINE, Metabolic Activation: NONE, Method: SUSPENSION/PLATE) was “inactive; negative” and the mutagenic call (Test System: CHINESE HAMSTER V-79, Strain/Indicator: V-79 (HPRT)/6-THIOGUANINE, Metabolic Activation: NONE) was “inactive; negative”.
In the case of `O=[N+]([O-])c1ccc2c(c1)Oc1cc(Cl)c(Cl)cc1O2`, the mutagenic call [1] is reported as “active; positive”, the mutagenic call (Test System: AMES SALMONELLA TYPHIMURIUM, Strain/Indicator: TA98, Metabolic Activation: RAT, LIVER, S-9, AROCLOR, Method: STANDARD PLATE) is reported as “active; positive” and the mutagenic call [2] is reported as “active; positive”. The mutagenic call (Test System: AMES SALMONELLA TYPHIMURIUM, Strain/Indicator: TA100, Metabolic Activation: RAT, LIVER, S-9, AROCLOR, Method: STANDARD PLATE) was “active; positive”.
`COP(=O)(OC)OC=C(Cl)Cl` was tested, and the mutagenic call (End Point: IN VITRO CHROMOSOMAL ABERRATIONS, Test System: CHO CELLS, Metabolic Activation: NONE) was “active; positive”, the mutagenic call (End Point: IN VITRO CHROMOSOMAL ABERRATIONS, Test System: CHO CELLS, Metabolic Activation: RAT, LIVER, S-9, AROCLOR 1254) was “active; positive” and the mutagenic call (End Point: In vivo micronucleus, Test System: Erythrocytes, Species: Mouse, Strain/Sex: Males and females (Strain not identified by DPR), Route: Intraperitoneal) was “inactive; negative”. The mutagenic call (Test System: AMES SALMONELLA TYPHIMURIUM, Strain/Indicator: TA98, Metabolic Activation: HAMSTER, LIVER, S-9, AROCLOR 1254 (30%), Method: PREINCUBATION) was “inactive; negative”, the mutagenic call [7] was “inactive; negative” and the mutagenic call (Test System: AMES SALMONELLA TYPHIMURIUM, Strain/Indicator: TA98, Metabolic Activation: RAT, LIVER, S-9, AROCLOR 1254 (30%), Method: PREINCUBATION) was “inactive; negative”. The mutagenic call (Test System: AMES SALMONELLA TYPHIMURIUM, Strain/Indicator: TA100, Metabolic Activation: HAMSTER, LIVER, S-9, AROCLOR 1254 (30%), Method: PREINCUBATION) was “active; positive”, the mutagenic call [8] was “active; positive” and the mutagenic call (Test System: AMES SALMONELLA TYPHIMURIUM, Strain/Indicator: TA100, Metabolic Activation: RAT, LIVER, S-9, AROCLOR 1254 (30%), Method: PREINCUBATION) was “active; positive”. The mutagenic call [3] was “active; positive”, the mutagenic call (Test System: CHINESE HAMSTER OVARY, Strain/Indicator: CHO-K1-BH4 (HGPRT)/6-THIOGUANINE, Metabolic Activation: NONE) was “active; positive” and the mutagenic call (Test System: CHINESE HAMSTER OVARY, Strain/Indicator: CHO-K1-BH4 (HGPRT)/6-THIOGUANINE, Metabolic Activation: S-9) was “active; positive”. For the same compound, the mutagenic call (Test System: CHINESE HAMSTER V-79, Strain/Indicator: V-79/OUABAIN, Metabolic Activation: NONE) was “inactive; negative”, the mutagenic call (Test System: E. COLI, Strain/Indicator: WP2, Metabolic Activation: NONE, Method: FLUCTUATION) was “active; positive” and the mutagenic call (Test System: E. COLI, Strain/Indicator: WP2, Metabolic Activation: NONE, Method: PREINCUBATION) was “active; positive”. For the same compound, the mutagenic call (Test System: E. COLI, Strain/Indicator: WP2, Metabolic Activation: NONE, Method: STANDARD PLATE) was “active; positive”, the mutagenic call (Test System: E. COLI, Strain/Indicator: WP2, Metabolic Activation: RAT, LIVER, S-9, AROCLOR 1254, Method: STANDARD PLATE) was “active; positive” and the mutagenic call (Test System: E. COLI, Strain/Indicator: WP2 UVRA, Metabolic Activation: NONE, Method: FLUCTUATION) was “active; positive”. For the same compound, the mutagenic call (Test System: E. COLI, Strain/Indicator: WP2 UVRA, Metabolic Activation: NONE, Method: PREINCUBATION) was “active; positive”, the mutagenic call (Test System: E. COLI, Strain/Indicator: WP2 UVRA, Metabolic Activation: NONE, Method: STANDARD PLATE) was “active; positive” and the mutagenic call (Test System: MOUSE LYMPHOMA, Strain/Indicator: L5178Y (TK+/TK-), Metabolic Activation: NONE, Method: SUSPENSION/PLATE) was “active; positive”. The mutagenic call (Test System: Mouse lymphoma, Strain/Indicator: L5178Y (TK+/TK-), Metabolic Activation: None) was “active; positive”, the mutagenic call (Test System: Mouse lymphoma, Strain/Indicator: L5178Y (TK+/TK-), Metabolic Activation: Rat, Liver, S-9) was “active; positive” and the mutagenic call (Test System: UDS HUMAN CELLS, Strain/Indicator: EUE LINE/THY INCORP, Metabolic Activation: NONE, Method: AUTORADIOGRAPHY) was “active; positive”. The mutagenic call (Test System: UDS MOUSE FORESTOMACH EPITHELIUM, Strain/Indicator: THY INCORP, Metabolic Activation: NONE, Method: AUTORADIOGRAPHY) was “inactive; negative”, the mutagenic call (Test System: UDS RAT HEPATOCYTES, Strain/Indicator: BROMODEOXYURIDINE INCORP, Metabolic Activation: NONE, Method: FLOW CYTOMETRIC ANALYSIS) was “inactive; negative” and the mutagenic call (Test System: UDS RAT HEPATOCYTES, Strain/Indicator: THY INCORP, Metabolic Activation: NONE, Method: AUTORADIOGRAPHY) was “inactive; negative”.
`O[C@@H]1[C@H]2O[C@H]2c2c(ccc3cc4ccc5ccccc5c4nc23)[C@H]1O` was tested, and the mutagenic call [7] was “active; positive”, the mutagenic call [8] was “active; positive” and the mutagenic call (Test System: CHINESE HAMSTER V-79, Strain/Indicator: V-79/8-AZAGUANINE, Metabolic Activation: NONE, Method: STANDARD PLATE) was “active; positive”.
With `c1ccc(COC[C@H]2CO2)cc1` the mutagenic call [2] was “active; positive”.
For `O=C(c1ccccc1)N(O)c1ccc2c(c1)Cc1ccccc1-2`, the mutagenic call [6] was “active; positive”.
